Results reported in the kinase profiling compilation of Christmann-Franck et al. (2016).

Legend:
Assay in all cases: radiometric filter-binding kinase assay
MAP2K6 (human) = MAP2K6 (human) (UniProt P52564)
[1] = tested on: PAK2 (human), Q13177 [T402E]
PLK1 (human) = PLK1 (human) (UniProt P53350)
BRSK1 (human) = BRSK1 (human) (UniProt Q8TDC3)
TBK1 (human) = TBK1 (human) (UniProt Q9UHD2)
MAP3K5 (human) = MAP3K5 (human) (UniProt Q99683)
MAPK8 (human) = MAPK8 (human) (UniProt P45983)
PAK7 (human) = PAK7 (human) (UniProt Q9P286)
CSK (human) = CSK (human) (UniProt P41240)
HIPK3 (human) = HIPK3 (human) (UniProt Q9H422)
CSNK1D (human) = CSNK1D (human) (UniProt P48730)
MAPK1 (human) = MAPK1 (human) (UniProt P28482)
AURKA (human) = AURKA (human) (UniProt O14965)
MKNK2 (human) = MKNK2 (human) (UniProt Q9HBH9)
MAPK9 (human) = MAPK9 (human) (UniProt P45984)
HIPK1 (human) = HIPK1 (human) (UniProt Q86Z02)
RPS6KA5 KD1 KD2 (human) = RPS6KA5 KD1 KD2 (human) (UniProt O75582)
EEF2K (human) = EEF2K (human) (UniProt O00418)
MAPK3 (human) = MAPK3 (human) (UniProt P27361)
IKBKB (human) = IKBKB (human) (UniProt O14920)
GSK3B (human) = GSK3B (human) (UniProt P49841)
[2] = tested on: AKT1 (human), P31749 [S473D]
ERBB4 (human) = ERBB4 (human) (UniProt Q15303)
SRPK1 (human) = SRPK1 (human) (UniProt Q96SB4)
NEK6 (human) = NEK6 (human) (UniProt Q9HC98)
FGFR1 (human) = FGFR1 (human) (UniProt P11362)
BRSK2 (human) = BRSK2 (human) (UniProt Q8IWQ3)
MAPKAPK3 (human) = MAPKAPK3 (human) (UniProt Q16644)
MAPK15 (human) = MAPK15 (human) (UniProt Q8TD08)
MAP3K1 (human) = MAP3K1 (human) (UniProt Q13233)
EPHA4 (human) = EPHA4 (human) (UniProt P54764); details: compound 1.0 µM
MAP2K2 (human) = MAP2K2 (human) (UniProt P36507); details: compound 0.1 µM
[3] = molecular target: STK11 CAB39 STRADA (human) (UniProt Q9Y376+Q7RTN6+Q15831)
RPS6KA3 KD1 KD2 (human) = RPS6KA3 KD1 KD2 (human) (UniProt P51812); details: compound 0.1 µM
BTK (human) = BTK (human) (UniProt Q06187)

PLK1 (human), sequence (P53350 whole entry, looked up): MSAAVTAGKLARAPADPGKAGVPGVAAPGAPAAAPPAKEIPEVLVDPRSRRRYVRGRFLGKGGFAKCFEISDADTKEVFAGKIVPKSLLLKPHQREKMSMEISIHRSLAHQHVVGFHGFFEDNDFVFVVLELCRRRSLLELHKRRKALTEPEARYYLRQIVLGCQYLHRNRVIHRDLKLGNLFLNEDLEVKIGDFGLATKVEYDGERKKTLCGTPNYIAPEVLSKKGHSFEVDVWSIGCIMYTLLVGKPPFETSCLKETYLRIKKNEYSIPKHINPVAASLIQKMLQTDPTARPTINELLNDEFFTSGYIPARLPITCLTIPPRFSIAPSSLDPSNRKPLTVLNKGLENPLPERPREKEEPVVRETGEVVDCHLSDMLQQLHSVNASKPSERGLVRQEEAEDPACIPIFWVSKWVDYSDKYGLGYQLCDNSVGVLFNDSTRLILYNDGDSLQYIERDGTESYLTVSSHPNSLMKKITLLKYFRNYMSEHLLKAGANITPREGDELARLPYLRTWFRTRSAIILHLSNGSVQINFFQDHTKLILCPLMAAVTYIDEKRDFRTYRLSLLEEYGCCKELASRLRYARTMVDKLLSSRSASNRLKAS
HIPK3 (human), sequence (Q9H422 whole entry, looked up): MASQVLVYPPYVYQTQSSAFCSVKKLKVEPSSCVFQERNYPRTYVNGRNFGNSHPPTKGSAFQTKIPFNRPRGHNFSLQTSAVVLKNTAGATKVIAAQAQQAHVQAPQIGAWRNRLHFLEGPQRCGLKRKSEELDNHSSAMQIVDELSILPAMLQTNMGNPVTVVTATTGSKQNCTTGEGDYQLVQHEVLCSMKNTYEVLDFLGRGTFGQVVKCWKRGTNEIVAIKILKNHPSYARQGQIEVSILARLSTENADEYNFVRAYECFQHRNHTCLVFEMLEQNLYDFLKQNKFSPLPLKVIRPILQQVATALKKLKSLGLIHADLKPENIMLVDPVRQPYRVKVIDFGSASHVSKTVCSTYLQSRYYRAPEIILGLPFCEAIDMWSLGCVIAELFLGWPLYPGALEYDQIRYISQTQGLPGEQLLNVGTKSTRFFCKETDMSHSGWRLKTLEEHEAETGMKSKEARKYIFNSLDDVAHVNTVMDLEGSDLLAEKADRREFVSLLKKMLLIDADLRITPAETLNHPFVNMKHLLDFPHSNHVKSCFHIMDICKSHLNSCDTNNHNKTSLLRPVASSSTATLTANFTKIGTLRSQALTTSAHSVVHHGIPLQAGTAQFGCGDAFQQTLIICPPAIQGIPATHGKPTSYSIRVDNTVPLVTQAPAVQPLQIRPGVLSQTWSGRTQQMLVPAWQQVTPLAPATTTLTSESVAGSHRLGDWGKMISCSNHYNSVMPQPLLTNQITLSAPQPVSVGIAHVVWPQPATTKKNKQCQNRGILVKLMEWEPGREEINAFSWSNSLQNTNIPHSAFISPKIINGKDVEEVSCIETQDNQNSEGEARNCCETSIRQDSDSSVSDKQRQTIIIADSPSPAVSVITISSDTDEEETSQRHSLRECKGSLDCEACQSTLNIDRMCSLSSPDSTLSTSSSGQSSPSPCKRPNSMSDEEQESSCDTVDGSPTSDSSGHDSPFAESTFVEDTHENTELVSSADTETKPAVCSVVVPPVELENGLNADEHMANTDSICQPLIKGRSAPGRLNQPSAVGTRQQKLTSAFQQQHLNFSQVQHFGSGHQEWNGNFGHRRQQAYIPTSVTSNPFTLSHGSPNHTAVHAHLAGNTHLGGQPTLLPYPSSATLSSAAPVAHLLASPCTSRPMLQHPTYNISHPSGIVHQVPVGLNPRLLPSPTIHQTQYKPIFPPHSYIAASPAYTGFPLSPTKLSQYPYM
HIPK1 (human), sequence (Q86Z02 whole entry, looked up): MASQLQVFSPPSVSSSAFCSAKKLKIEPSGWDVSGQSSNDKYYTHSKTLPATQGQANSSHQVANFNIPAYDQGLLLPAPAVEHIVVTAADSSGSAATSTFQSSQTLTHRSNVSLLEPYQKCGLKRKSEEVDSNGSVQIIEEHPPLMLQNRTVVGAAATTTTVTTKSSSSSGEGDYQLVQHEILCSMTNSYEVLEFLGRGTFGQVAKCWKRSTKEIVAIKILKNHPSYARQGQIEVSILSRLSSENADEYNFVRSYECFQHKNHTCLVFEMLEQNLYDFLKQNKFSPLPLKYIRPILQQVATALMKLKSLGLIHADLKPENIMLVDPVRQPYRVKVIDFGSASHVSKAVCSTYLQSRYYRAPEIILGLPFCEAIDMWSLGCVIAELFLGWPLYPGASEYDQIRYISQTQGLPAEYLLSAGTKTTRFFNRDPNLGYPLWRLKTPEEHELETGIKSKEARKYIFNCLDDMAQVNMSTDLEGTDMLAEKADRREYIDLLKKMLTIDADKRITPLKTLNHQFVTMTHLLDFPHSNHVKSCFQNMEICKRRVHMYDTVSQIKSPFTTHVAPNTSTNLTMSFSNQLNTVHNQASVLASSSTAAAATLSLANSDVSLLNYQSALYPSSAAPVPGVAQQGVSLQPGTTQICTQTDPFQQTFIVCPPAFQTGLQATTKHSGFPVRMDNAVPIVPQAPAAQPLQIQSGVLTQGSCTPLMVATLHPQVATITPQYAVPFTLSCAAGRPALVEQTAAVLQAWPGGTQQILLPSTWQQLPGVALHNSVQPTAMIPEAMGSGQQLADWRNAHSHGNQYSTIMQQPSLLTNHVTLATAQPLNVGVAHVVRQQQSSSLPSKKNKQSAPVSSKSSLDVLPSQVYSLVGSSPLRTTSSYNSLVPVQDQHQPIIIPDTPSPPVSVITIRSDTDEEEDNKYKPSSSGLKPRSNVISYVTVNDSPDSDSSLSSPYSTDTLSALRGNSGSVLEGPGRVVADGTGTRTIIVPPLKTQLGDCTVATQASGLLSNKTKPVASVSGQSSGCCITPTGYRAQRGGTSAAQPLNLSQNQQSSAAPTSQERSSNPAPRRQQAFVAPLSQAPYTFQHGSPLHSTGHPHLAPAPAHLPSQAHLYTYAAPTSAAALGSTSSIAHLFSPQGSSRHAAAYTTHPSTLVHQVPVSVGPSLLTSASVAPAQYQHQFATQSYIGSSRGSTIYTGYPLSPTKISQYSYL
MAP3K5 (human), sequence (Q99683 whole entry, looked up): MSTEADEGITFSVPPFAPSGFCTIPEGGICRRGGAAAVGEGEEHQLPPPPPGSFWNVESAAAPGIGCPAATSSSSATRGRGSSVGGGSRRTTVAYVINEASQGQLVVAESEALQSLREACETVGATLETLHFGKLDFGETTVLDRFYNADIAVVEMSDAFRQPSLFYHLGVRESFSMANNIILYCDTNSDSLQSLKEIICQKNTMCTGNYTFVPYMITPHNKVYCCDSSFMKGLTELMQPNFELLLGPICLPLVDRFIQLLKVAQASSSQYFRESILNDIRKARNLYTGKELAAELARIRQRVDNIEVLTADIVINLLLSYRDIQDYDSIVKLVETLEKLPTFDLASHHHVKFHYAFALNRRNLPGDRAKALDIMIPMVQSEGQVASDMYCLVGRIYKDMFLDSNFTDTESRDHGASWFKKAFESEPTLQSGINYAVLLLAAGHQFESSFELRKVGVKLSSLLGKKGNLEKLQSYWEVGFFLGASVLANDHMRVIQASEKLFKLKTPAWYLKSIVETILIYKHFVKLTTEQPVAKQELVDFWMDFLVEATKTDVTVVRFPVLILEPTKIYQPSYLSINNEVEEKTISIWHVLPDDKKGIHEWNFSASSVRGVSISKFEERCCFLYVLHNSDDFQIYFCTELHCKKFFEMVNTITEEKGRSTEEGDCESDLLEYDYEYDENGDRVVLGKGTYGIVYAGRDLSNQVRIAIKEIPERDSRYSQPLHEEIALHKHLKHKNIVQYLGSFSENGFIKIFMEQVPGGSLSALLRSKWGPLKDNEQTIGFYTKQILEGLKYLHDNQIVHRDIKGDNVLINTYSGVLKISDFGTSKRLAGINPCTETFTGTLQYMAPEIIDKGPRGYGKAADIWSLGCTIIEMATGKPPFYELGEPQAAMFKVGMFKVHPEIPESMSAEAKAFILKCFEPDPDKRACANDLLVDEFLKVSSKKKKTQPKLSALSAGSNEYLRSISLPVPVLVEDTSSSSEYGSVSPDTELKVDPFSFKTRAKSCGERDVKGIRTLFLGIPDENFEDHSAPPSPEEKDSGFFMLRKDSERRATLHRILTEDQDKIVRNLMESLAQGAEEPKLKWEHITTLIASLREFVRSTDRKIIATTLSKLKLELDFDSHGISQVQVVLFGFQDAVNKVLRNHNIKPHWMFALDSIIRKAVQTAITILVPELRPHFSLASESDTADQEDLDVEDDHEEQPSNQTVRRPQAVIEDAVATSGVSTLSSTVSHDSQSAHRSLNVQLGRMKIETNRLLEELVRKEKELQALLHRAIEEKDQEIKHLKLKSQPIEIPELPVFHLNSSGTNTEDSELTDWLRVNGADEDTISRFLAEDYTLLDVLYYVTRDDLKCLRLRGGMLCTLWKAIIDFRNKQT
SRPK1 (human), sequence (Q96SB4 whole entry, looked up): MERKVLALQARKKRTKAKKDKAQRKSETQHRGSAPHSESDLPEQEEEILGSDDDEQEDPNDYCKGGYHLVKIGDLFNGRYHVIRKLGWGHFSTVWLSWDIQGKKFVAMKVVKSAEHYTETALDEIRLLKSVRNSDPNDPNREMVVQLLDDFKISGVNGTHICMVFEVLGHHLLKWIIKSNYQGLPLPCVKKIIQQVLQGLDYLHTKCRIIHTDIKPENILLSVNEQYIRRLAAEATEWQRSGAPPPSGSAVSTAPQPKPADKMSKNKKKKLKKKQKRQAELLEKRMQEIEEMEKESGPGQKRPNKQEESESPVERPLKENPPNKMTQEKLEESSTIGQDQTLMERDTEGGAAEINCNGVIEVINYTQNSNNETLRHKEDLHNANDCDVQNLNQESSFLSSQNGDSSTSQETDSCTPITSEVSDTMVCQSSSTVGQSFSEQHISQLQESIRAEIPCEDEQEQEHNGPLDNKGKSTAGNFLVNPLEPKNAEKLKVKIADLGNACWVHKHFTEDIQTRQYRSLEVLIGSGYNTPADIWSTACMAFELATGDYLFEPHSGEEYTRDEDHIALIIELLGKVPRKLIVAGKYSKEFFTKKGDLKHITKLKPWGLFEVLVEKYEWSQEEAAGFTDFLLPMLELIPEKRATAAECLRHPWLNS

- residual activity (MAP2K6 (human); compound 0.1 µM): 89%
- residual activity (MAP2K6 (human); compound 1.0 µM): 90%
- residual activity (MAP2K6 (human); compound 10.0 µM): 96%
- residual activity ([1]; compound 0.1 µM): 99%
- residual activity ([1]; compound 1.0 µM): 93%
- residual activity ([1]; compound 10.0 µM): 90%
- residual activity (PLK1 (human); compound 0.1 µM): 83%
- residual activity (PLK1 (human); compound 1.0 µM): 60%
- residual activity (PLK1 (human); compound 10.0 µM): 41%
- residual activity (BRSK1 (human); compound 0.1 µM): 91%
- residual activity (BRSK1 (human); compound 1.0 µM): 81%
- residual activity (BRSK1 (human); compound 10.0 µM): 41%
- residual activity (TBK1 (human); compound 0.1 µM): 88%
- residual activity (TBK1 (human); compound 1.0 µM): 93%
- residual activity (TBK1 (human); compound 10.0 µM): 78%
- residual activity (MAP3K5 (human); compound 0.1 µM): 100%
- residual activity (MAP3K5 (human); compound 1.0 µM): 97%
- residual activity (MAP3K5 (human); compound 10.0 µM): 97%
- residual activity (MAPK8 (human); compound 0.1 µM): 112%
- residual activity (MAPK8 (human); compound 1.0 µM): 105%
- residual activity (MAPK8 (human); compound 10.0 µM): 101%
- residual activity (PAK7 (human); compound 0.1 µM): 93%
- residual activity (PAK7 (human); compound 1.0 µM): 100%
- residual activity (PAK7 (human); compound 10.0 µM): 98%
- residual activity (CSK (human); compound 0.1 µM): 89%
- residual activity (CSK (human); compound 1.0 µM): 95%
- residual activity (CSK (human); compound 10.0 µM): 98%
- residual activity (HIPK3 (human); compound 0.1 µM): 99%
- residual activity (HIPK3 (human); compound 1.0 µM): 95%
- residual activity (HIPK3 (human); compound 10.0 µM): 84%
- residual activity (CSNK1D (human); compound 0.1 µM): 102%
- residual activity (CSNK1D (human); compound 1.0 µM): 91%
- residual activity (CSNK1D (human); compound 10.0 µM): 61%
- residual activity (MAPK1 (human); compound 0.1 µM): 113%
- residual activity (MAPK1 (human); compound 1.0 µM): 117%
- residual activity (MAPK1 (human); compound 10.0 µM): 115%
- residual activity (AURKA (human); compound 0.1 µM): 91%
- residual activity (AURKA (human); compound 1.0 µM): 95%
- residual activity (AURKA (human); compound 10.0 µM): 103%
- residual activity (MKNK2 (human); compound 0.1 µM): 110%
- residual activity (MKNK2 (human); compound 1.0 µM): 116%
- residual activity (MKNK2 (human); compound 10.0 µM): 77%
- residual activity (MAPK9 (human); compound 0.1 µM): 109%
- residual activity (MAPK9 (human); compound 1.0 µM): 103%
- residual activity (MAPK9 (human); compound 10.0 µM): 95%
- residual activity (HIPK1 (human); compound 0.1 µM): 107%
- residual activity (HIPK1 (human); compound 1.0 µM): 107%
- residual activity (HIPK1 (human); compound 10.0 µM): 84%
- residual activity (RPS6KA5 KD1 KD2 (human); compound 0.1 µM): 22%
- residual activity (RPS6KA5 KD1 KD2 (human); compound 1.0 µM): 5%
- residual activity (RPS6KA5 KD1 KD2 (human); compound 10.0 µM): 1%
- residual activity (EEF2K (human); compound 0.1 µM): 118%
- residual activity (EEF2K (human); compound 10.0 µM): 117%
- residual activity (MAPK3 (human); compound 0.1 µM): 95%
- residual activity (MAPK3 (human); compound 1.0 µM): 98%
- residual activity (MAPK3 (human); compound 10.0 µM): 97%
- residual activity (IKBKB (human); compound 0.1 µM): 98%
- residual activity (IKBKB (human); compound 1.0 µM): 97%
- residual activity (IKBKB (human); compound 10.0 µM): 100%
- residual activity (GSK3B (human); compound 0.1 µM): 87%
- residual activity (GSK3B (human); compound 1.0 µM): 66%
- residual activity (GSK3B (human); compound 10.0 µM): 25%
- residual activity ([2]; compound 0.1 µM): 48%
- residual activity ([2]; compound 1.0 µM): 16%
- residual activity ([2]; compound 10.0 µM): 4%
- residual activity (ERBB4 (human); compound 0.1 µM): 112%
- residual activity (ERBB4 (human); compound 1.0 µM): 104%
- residual activity (SRPK1 (human); compound 0.1 µM): 94%
- residual activity (SRPK1 (human); compound 1.0 µM): 99%
- residual activity (SRPK1 (human); compound 10.0 µM): 86%
- residual activity (NEK6 (human); compound 0.1 µM): 103%
- residual activity (NEK6 (human); compound 1.0 µM): 101%
- residual activity (NEK6 (human); compound 10.0 µM): 102%
- residual activity (FGFR1 (human); compound 0.1 µM): 101%
- residual activity (FGFR1 (human); compound 1.0 µM): 115%
- residual activity (FGFR1 (human); compound 10.0 µM): 121%
- residual activity (BRSK2 (human); compound 0.1 µM): 96%
- residual activity (BRSK2 (human); compound 1.0 µM): 89%
- residual activity (BRSK2 (human); compound 10.0 µM): 41%
- residual activity (MAPKAPK3 (human); compound 0.1 µM): 98%
- residual activity (MAPKAPK3 (human); compound 1.0 µM): 101%
- residual activity (MAPKAPK3 (human); compound 10.0 µM): 97%
- residual activity (MAP3K1 (human); compound 0.1 µM): 94%
- residual activity (MAP3K1 (human); compound 1.0 µM): 93%
- residual activity (MAP3K1 (human); compound 10.0 µM): 112%
- residual activity (EPHA4 (human)): 109%
- residual activity (MAP2K2 (human)): 98%
- residual activity ([3]; compound 0.1 µM): 108%
- residual activity ([3]; compound 10.0 µM): 57%
- residual activity (RPS6KA3 KD1 KD2 (human)): 94%
- residual activity (BTK (human); compound 0.1 µM): 92%
- residual activity (BTK (human); compound 1.0 µM): 93%
- residual activity (BTK (human); compound 10.0 µM): 112%
Compound: CCn1c(-c2nonc2N)nc2cncc(CNC3CCNCC3)c21
- residual activity (MAPK15 (human); compound 0.1 µM): 95%
- residual activity (MAPK15 (human); compound 1.0 µM): 62%
- residual activity (MAPK15 (human); compound 10.0 µM): 27%
